Measurements: ChEMBL document CHEMBL1201861, “Genomics of Drug Sensitity in Cancer screening data, Wellcome Trust Sanger Institute”

Legend:
Assay in all cases: cells
ChaGo-K-1 = type: functional, cell-based; conditions: Homo sapiens;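 further: growth inhibition of ChaGo-K-1 cells, read out with a cell viability assay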
Description: SANGER: Inhibition of human ChaGo-K-1 cell growth in a cell viability assay.

D-247MG = type: functional, cell-based, Homo sapiens; conditions: Homo sapiens, D-247MG
Description: SANGER: Inhibition of human D-247MG cell growth in a cell viability assay.

DBTRG-05MG = type: functional, cell-based, Homo sapiens; conditions: Homo sapiens, DBTRG-05MG;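 further: cell viability assay measuring growth inhibition of human DBTRG-05MG cells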
Description: SANGER: Inhibition of human DBTRG-05MG cell growth in a cell viability assay.

DJM-1 = type: functional, cell-based, Homo sapiens; conditions: Homo sapiens, DJM-1;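 further: growth inhibition of human DJM-1 cells, read out by a cell viability assay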
Description: SANGER: Inhibition of human DJM-1 cell growth in a cell viability assay.

DK-MG = type: functional, cell-based, Homo sapiens; conditions: Homo sapiens, DK-MG;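 further: growth inhibition of DK-MG cells, read out with a cell viability assay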
Description: SANGER: Inhibition of human DK-MG cell growth in a cell viability assay.

GAK = type: functional, cell-based, Homo sapiens; conditions: Homo sapiens, GAK;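 further: cell growth inhibition read out by a cell viability assay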
Description: SANGER: Inhibition of human GAK cell growth in a cell viability assay.

GAMG = type: functional, cell-based, Homo sapiens; conditions: Homo sapiens, GAMG;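 further: cell growth inhibition measured by a viability assay in the GAMG human cell line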
Description: SANGER: Inhibition of human GAMG cell growth in a cell viability assay.

GB-1 = type: functional, cell-based, Homo sapiens; conditions: Homo sapiens, GB-1;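 further: growth of GB-1 cells judged by a viability assay, IC50 marks the concentration inhibiting growth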
Description: SANGER: Inhibition of human GB-1 cell growth in a cell viability assay.

GCT = type: functional, cell-based, Homo sapiens; conditions: Homo sapiens, GCT;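 further: GCT cell line proliferation inhibition, read out with a cell viability assay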
Description: SANGER: Inhibition of human GCT cell growth in a cell viability assay.

HC-1 = type: functional, cell-based; conditions: Homo sapiens;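 further: growth inhibition of HC-1 cells measured by a cell viability assay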
Description: SANGER: Inhibition of human HC-1 cell growth in a cell viability assay.

HCE-4 = type: functional, cell-based, Homo sapiens; conditions: Homo sapiens, HCE-4;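 further: cell viability assay measuring inhibition of growth in the human HCE-4 cell line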
Description: SANGER: Inhibition of human HCE-4 cell growth in a cell viability assay.

HOS = type: functional, cell-based, Homo sapiens; conditions: Homo sapiens, HOS;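 further: growth inhibition of human HOS cells, read out with a cell viability assay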
Description: SANGER: Inhibition of human HOS cell growth in a cell viability assay.

HuP-T4 = type: functional, cell-based, Homo sapiens; conditions: Homo sapiens, HuP-T4;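 further: cell viability assay measuring how much HuP-T4 cell growth is inhibited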
Description: SANGER: Inhibition of human HuP-T4 cell growth in a cell viability assay.

J82 = type: functional, cell-based; conditions: Homo sapiens;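 further: growth inhibition of J82 cells, read out with a cell viability assay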
Description: SANGER: Inhibition of human J82 cell growth in a cell viability assay.

JVM-3 = type: functional, cell-based; conditions: Homo sapiens;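 further: growth inhibition of human JVM-3 cells, read out with a cell viability assay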
Description: SANGER: Inhibition of human JVM-3 cell growth in a cell viability assay.

KARPAS-299 = type: functional, cell-based; conditions: Homo sapiens
Description: SANGER: Inhibition of human KARPAS-299 cell growth in a cell viability assay.

KGN = type: functional, cell-based, Homo sapiens; conditions: Homo sapiens, KGN;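 further: growth inhibition of KGN cells, read out with a cell viability assay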
Description: SANGER: Inhibition of human KGN cell growth in a cell viability assay.

KM-H2 = type: functional, cell-based; conditions: Homo sapiens;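 further: growth inhibition of KM-H2 cells, read out by a cell viability assay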
Description: SANGER: Inhibition of human KM-H2 cell growth in a cell viability assay.

KMOE-2 = type: functional, cell-based; conditions: Homo sapiens;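 further: growth inhibition of human KMOE-2 cells, read out with a cell viability assay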
Description: SANGER: Inhibition of human KMOE-2 cell growth in a cell viability assay.

KYSE-410 = type: functional, cell-based, Homo sapiens; conditions: Homo sapiens, KYSE-410;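 further: growth inhibition of KYSE-410 cells, measured through a cell viability readout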
Description: SANGER: Inhibition of human KYSE-410 cell growth in a cell viability assay.

L-363 = type: functional, cell-based; conditions: Homo sapiens
Description: SANGER: Inhibition of human L-363 cell growth in a cell viability assay.

LB2241-RCC = type: functional, cell-based, Homo sapiens; conditions: Homo sapiens, LB2241-RCC;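 further: cell viability assay measuring how strongly the cultured human renal carcinoma line is prevented from growing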
Description: SANGER: Inhibition of human LB2241-RCC cell growth in a cell viability assay.

LB373-MEL-D = type: functional, cell-based, Homo sapiens; conditions: Homo sapiens, LB373-MEL-D;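 further: growth inhibition of the cell line, read out in a cell viability assay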
Description: SANGER: Inhibition of human LB373-MEL-D cell growth in a cell viability assay.

LCLC-97TM1 = type: functional, cell-based, Homo sapiens; conditions: Homo sapiens, LCLC-97TM1;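 further: cell viability assay measuring growth inhibition of human LCLC-97TM1 cells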
Description: SANGER: Inhibition of human LCLC-97TM1 cell growth in a cell viability assay.

LOX IMVI = type: functional, cell-based; conditions: Homo sapiens
Description: SANGER: Inhibition of human LOXIMVI cell growth in a cell viability assay.

MDA-MB-453 = type: functional, cell-based, Homo sapiens; conditions: Homo sapiens, MDA-MB-453
Description: SANGER: Inhibition of human MDA-MB-453 cell growth in a cell viability assay.

MFM-223 = type: functional, cell-based, Homo sapiens; conditions: Homo sapiens, MFM-223
Description: SANGER: Inhibition of human MFM-223 cell growth in a cell viability assay.

ML-2 = type: functional, cell-based; conditions: Homo sapiens;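 further: growth inhibition of ML-2 cells, measured with a cell viability readout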
Description: SANGER: Inhibition of human ML-2 cell growth in a cell viability assay.

MMAC-SF = type: functional, cell-based, Homo sapiens; conditions: Homo sapiens, MMAC-SF;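 further: growth inhibition of human MMAC-SF cells, read out with a cell viability assay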
Description: SANGER: Inhibition of human MMAC-SF cell growth in a cell viability assay.

MV4-11 = type: functional, cell-based, MV-4-11; conditions: Homo sapiens;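 further: cell viability readout measuring growth inhibition of human MV-4-11 cells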
Description: SANGER: Inhibition of human MV-4-11 cell growth in a cell viability assay.

NB12 = type: functional, cell-based, Homo sapiens; conditions: Homo sapiens, NB12;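 further: growth inhibition of human NB12 cells, read out by a cell viability assay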
Description: SANGER: Inhibition of human NB12 cell growth in a cell viability assay.

NCI-H1155 = type: functional, cell-based; conditions: Homo sapiens;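 further: cell growth inhibition measured by a viability assay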
Description: SANGER: Inhibition of human NCI-H1155 cell growth in a cell viability assay.

NCI-H1648 = type: functional, cell-based, Homo sapiens; conditions: Homo sapiens, NCI-H1648;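 further: cell viability assay measuring inhibition of NCI-H1648 cell growth, from the Sanger screening data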
Description: SANGER: Inhibition of human NCI-H1648 cell growth in a cell viability assay.

NCI-H1770 = type: functional, cell-based; conditions: Homo sapiens;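 further: growth inhibition of NCI-H1770 cells determined with a viability readout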
Description: SANGER: Inhibition of human NCI-H1770 cell growth in a cell viability assay.

NCI-H2087 = type: functional, cell-based, Homo sapiens; conditions: Homo sapiens, NCI-H2087;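 further: growth inhibition determined with a cell viability readout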
Description: SANGER: Inhibition of human NCI-H2087 cell growth in a cell viability assay.

NCI-H209 = type: functional, cell-based; conditions: Homo sapiens;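 further: growth inhibition of human NCI-H209 cells, measured by a cell viability assay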
Description: SANGER: Inhibition of human NCI-H209 cell growth in a cell viability assay.

NCI-H526 = type: functional, cell-based; conditions: Homo sapiens;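 further: growth inhibition of the human NCI-H526 cell line, measured by a cell viability assay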
Description: SANGER: Inhibition of human NCI-H526 cell growth in a cell viability assay.

OAW-42 = type: functional, cell-based, Homo sapiens; conditions: Homo sapiens, OAW-42;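 further: growth inhibition of OAW-42 cells, read out with a cell viability assay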
Description: SANGER: Inhibition of human OAW-42 cell growth in a cell viability assay.

P30-OHK = type: functional, cell-based; conditions: Homo sapiens;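 further: growth inhibition of the P30-OHK cell line, read out with a cell viability assay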
Description: SANGER: Inhibition of human P30-OHK cell growth in a cell viability assay.

RS4-11 = type: functional, cell-based; conditions: Homo sapiens;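 further: growth inhibition of RS4-11 cells, read out by a cell viability assay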
Description: SANGER: Inhibition of human RS4-11 cell growth in a cell viability assay.

SCH = type: functional, cell-based, Homo sapiens; conditions: Homo sapiens, SCH;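 further: growth inhibition of human SCH cells, read out in a cell viability assay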
Description: SANGER: Inhibition of human SCH cell growth in a cell viability assay.

SF-295 = type: functional, cell-based, Homo sapiens; conditions: Homo sapiens, SF-295; read-out: IC50;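 further: growth inhibition of SF-295 cells, read out with a cell viability assay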
Description: SANGER: Inhibition of human SF295 cell growth in a cell viability assay.

SH-4 = type: functional, cell-based, Homo sapiens; conditions: Homo sapiens, SH-4;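 further: growth inhibition of SH-4 cells, read out with a cell viability assay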
Description: SANGER: Inhibition of human SH-4 cell growth in a cell viability assay.

SK-MEL-1 = type: functional, cell-based; conditions: Homo sapiens;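 further: growth inhibition of human SK-MEL-1 cells, read out by a cell viability assay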
Description: SANGER: Inhibition of human SK-MEL-1 cell growth in a cell viability assay.

SW1417 = type: functional, cell-based, Homo sapiens; conditions: Homo sapiens, SW1417;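 further: growth inhibition of human SW1417 cells, read out with a cell viability assay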
Description: SANGER: Inhibition of human SW1417 cell growth in a cell viability assay.

A2780 = type: functional, cell-based, Homo sapiens; conditions: Homo sapiens, A2780;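 further: growth inhibition of A2780 cells, read out with a cell viability assay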
Description: SANGER: Inhibition of human A2780 cell growth in a cell viability assay.

A-431 = type: functional, cell-based, Homo sapiens; conditions: Homo sapiens, A-431;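 further: growth inhibition of A-431 cells, determined with a cell viability read-out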
Description: SANGER: Inhibition of human A431 cell growth in a cell viability assay.

ACN = type: functional, cell-based, Homo sapiens; conditions: Homo sapiens, ACN;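 further: growth inhibition of the human ACN cell line, read out via cell viability testing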
Description: SANGER: Inhibition of human ACN cell growth in a cell viability assay.

BV-173 = type: functional, cell-based; conditions: Homo sapiens
Description: SANGER: Inhibition of human BV-173 cell growth in a cell viability assay.

Becker = type: functional, cell-based, Homo sapiens; conditions: Homo sapiens, Becker;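 further: growth inhibition of Becker cells, read out with a cell viability assay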
Description: SANGER: Inhibition of human Becker cell growth in a cell viability assay.

CAL-62 = type: functional, cell-based, Homo sapiens; conditions: Homo sapiens, CAL-62;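 further: growth inhibition of CAL-62 cells, read out with a cell viability assay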
Description: SANGER: Inhibition of human CAL-62 cell growth in a cell viability assay.

CAL-72 = type: functional, cell-based, Homo sapiens; conditions: Homo sapiens, CAL-72;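 further: cell viability assay measuring inhibition of proliferation in the CAL-72 cell line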
Description: SANGER: Inhibition of human CAL-72 cell growth in a cell viability assay.

TE-10 = type: functional, cell-based, Homo sapiens; conditions: Homo sapiens, TE-10;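 further: growth inhibition of TE-10 cells, measured by a cell viability assay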
Description: SANGER: Inhibition of human TE-10 cell growth in a cell viability assay.

YAPC = type: functional, cell-based, Homo sapiens; conditions: Homo sapiens, YAPC;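 further: growth inhibition of YAPC cells, measured with a cell viability assay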
Description: SANGER: Inhibition of human YAPC cell growth in a cell viability assay.

CN(c1ncccc1CNc1nc(Nc2ccc3c(c2)CC(=O)N3)ncc1C(F)(F)F)S(C)(=O)=O [PF-00562271]
IC50 (ChaGo-K-1): > 2560 nM | IC50 (D-247MG): > 2560 nM | IC50 (DBTRG-05MG): > 2560 nM | IC50 (DJM-1): > 2560 nM | IC50 (DK-MG): > 2560 nM | IC50 (GAK): > 2560 nM | IC50 (GAMG): > 2560 nM | IC50 (GB-1): > 2560 nM | IC50 (GCT): > 2560 nM | IC50 (HC-1): > 2560 nM | IC50 (HCE-4): > 2560 nM | IC50 (HOS): > 2560 nM | IC50 (HuP-T4): > 2560 nM | IC50 (J82): > 2560 nM | IC50 (JVM-3): > 2560 nM | IC50 (KARPAS-299): > 2560 nM | IC50 (KGN): > 2560 nM | IC50 (KM-H2): > 2560 nM | IC50 (KMOE-2): > 2560 nM | IC50 (KYSE-410): > 2560 nM | IC50 (L-363): > 2560 nM | IC50 (LB2241-RCC): > 2560 nM | IC50 (LB373-MEL-D): > 2560 nM | IC50 (LCLC-97TM1): > 2560 nM | IC50 (LOX IMVI): > 2560 nM | IC50 (MDA-MB-453): > 2560 nM | IC50 (MFM-223): > 2560 nM | IC50 (ML-2): 1670 nM | IC50 (MMAC-SF): > 2560 nM | IC50 (MV4-11): 277 nM | IC50 (NB12): > 2560 nM | IC50 (NCI-H1155): > 2560 nM | IC50 (NCI-H1648): > 2560 nM | IC50 (NCI-H1770): > 2560 nM | IC50 (NCI-H2087): > 2560 nM | IC50 (NCI-H209): > 2560 nM | IC50 (NCI-H526): > 2560 nM | IC50 (OAW-42): > 2560 nM | IC50 (P30-OHK): > 2560 nM | IC50 (RS4-11): > 2560 nM | IC50 (SCH): > 2560 nM | IC50 (SF-295): > 2560 nM | IC50 (SH-4): > 2560 nM | IC50 (SK-MEL-1): > 2560 nM | IC50 (SW1417): > 2560 nM | IC50 (A2780): > 2560 nM | IC50 (A-431): > 2560 nM | IC50 (ACN): 2350 nM | IC50 (BV-173): > 2560 nM | IC50 (Becker): > 2560 nM | IC50 (CAL-62): 1320 nM | IC50 (CAL-72): > 2560 nM | IC50 (TE-10): > 2560 nM | IC50 (YAPC): > 2560 nM

COc1cc([C@@H]2c3cc4c(cc3[C@@H](O[C@@H]3O[C@@H]5CO[C@@H](C)O[C@H]5[C@H](O)[C@H]3O)[C@H]3COC(=O)[C@H]23)OCO4)cc(OC)c1O [ETOPOSIDE]
IC50 (ChaGo-K-1): 3790 nM | IC50 (D-247MG): > 16000 nM | IC50 (DBTRG-05MG): 2630 nM | IC50 (DJM-1): 203 nM | IC50 (DK-MG): > 16000 nM | IC50 (GAK): > 16000 nM | IC50 (GAMG): 2610 nM | IC50 (GB-1): 1610 nM | IC50 (GCT): 3270 nM | IC50 (HC-1): 540 nM | IC50 (HCE-4): 801 nM | IC50 (HOS): 474 nM | IC50 (HuP-T4): 1450 nM | IC50 (J82): 3340 nM | IC50 (JVM-3): > 16000 nM | IC50 (KARPAS-299): > 16000 nM | IC50 (KGN): 352 nM | IC50 (KM-H2): 1670 nM | IC50 (KMOE-2): 8040 nM | IC50 (KYSE-410): 12800 nM | IC50 (L-363): 6590 nM | IC50 (LB2241-RCC): > 16000 nM | IC50 (LB373-MEL-D): > 16000 nM | IC50 (LCLC-97TM1): 766 nM | IC50 (LOX IMVI): > 16000 nM | IC50 (MDA-MB-453): > 16000 nM | IC50 (MFM-223): > 16000 nM | IC50 (ML-2): 178 nM | IC50 (MMAC-SF): 6880 nM | IC50 (MV4-11): 151 nM | IC50 (NB12): 1080 nM | IC50 (NCI-H1155): 11000 nM | IC50 (NCI-H1648): > 16000 nM | IC50 (NCI-H1770): 3870 nM | IC50 (NCI-H2087): 763 nM | IC50 (NCI-H209): 1210 nM | IC50 (NCI-H526): 456 nM | IC50 (OAW-42): 6060 nM | IC50 (P30-OHK): 1210 nM | IC50 (RS4-11): 196 nM | IC50 (SCH): > 16000 nM | IC50 (SF-295): 1660 nM | IC50 (SH-4): 3130 nM | IC50 (SK-MEL-1): > 16000 nM | IC50 (SW1417): > 16000 nM | IC50 (A2780): 1110 nM | IC50 (A-431): 798 nM | IC50 (ACN): 79 nM | IC50 (BV-173): 5050 nM | IC50 (Becker): 11800 nM | IC50 (CAL-62): 851 nM | IC50 (CAL-72): > 16000 nM | IC50 (TE-10): 2380 nM | IC50 (YAPC): > 16000 nM

C=CCc1cccc(/C=N/NC(=O)CN2CCN(Cc3ccccc3)CC2)c1O [PAC-1]
IC50 (ChaGo-K-1): > 2560 nM | IC50 (DBTRG-05MG): > 2560 nM | IC50 (DJM-1): > 2560 nM | IC50 (DK-MG): > 2560 nM | IC50 (GAK): > 2560 nM | IC50 (GAMG): > 2560 nM | IC50 (GB-1): > 2560 nM | IC50 (GCT): > 2560 nM | IC50 (HC-1): 1860 nM | IC50 (HCE-4): > 2560 nM | IC50 (HOS): > 2560 nM | IC50 (HuP-T4): > 2560 nM | IC50 (J82): > 2560 nM | IC50 (JVM-3): > 2560 nM | IC50 (KARPAS-299): > 2560 nM | IC50 (KGN): 2150 nM | IC50 (KM-H2): > 2560 nM | IC50 (KMOE-2): > 2560 nM | IC50 (KYSE-410): 1180 nM | IC50 (L-363): > 2560 nM | IC50 (LB2241-RCC): > 2560 nM | IC50 (LB373-MEL-D): > 2560 nM | IC50 (LCLC-97TM1): 1420 nM | IC50 (LOX IMVI): > 2560 nM | IC50 (MDA-MB-453): > 2560 nM | IC50 (MFM-223): > 2560 nM | IC50 (ML-2): > 2560 nM | IC50 (MMAC-SF): > 2560 nM | IC50 (MV4-11): > 2560 nM | IC50 (NB12): > 2560 nM | IC50 (NCI-H1155): > 2560 nM | IC50 (NCI-H1648): > 2560 nM | IC50 (NCI-H1770): > 2560 nM | IC50 (NCI-H2087): > 2560 nM | IC50 (NCI-H209): > 2560 nM | IC50 (NCI-H526): > 2560 nM | IC50 (OAW-42): > 2560 nM | IC50 (P30-OHK): > 2560 nM | IC50 (RS4-11): > 2560 nM | IC50 (SCH): > 2560 nM | IC50 (SF-295): > 2560 nM | IC50 (SH-4): > 2560 nM | IC50 (SK-MEL-1): > 2560 nM | IC50 (SW1417): > 2560 nM | IC50 (A2780): > 2560 nM | IC50 (A-431): > 2560 nM | IC50 (ACN): 1790 nM | IC50 (BV-173): > 2560 nM | IC50 (Becker): > 2560 nM | IC50 (CAL-62): > 2560 nM | IC50 (CAL-72): > 2560 nM | IC50 (TE-10): > 2560 nM | IC50 (YAPC): > 2560 nM
